Test results from publication PMC7376718, “Flavonoids isolated from the South African weed Chromolaena odorata (Asteraceae) have pharmacological activity against uropathogens” (BMC Complementary Medicine and Therapies, 2020).
Values after ≈ are worked out from the molar mass of the structure shown. Like-named read-outs stand apart in the source and are kept apart here.

Key:
[1] = tested on: S. aureus, E. coli (1), E. coli (2), E. coli (3), K. pneumoniae; assay: Mean MIC over the bacterial strains; assay type: cell-based; details: mean over the five bacterial strains of Table 3
Excerpt: (§1) The cultures used were Escherichia coli (American Type Culture Collection, ATCC 25922) labelled as 1, E. coli isolates (B1989/17 and B1962/17) labelled as 2 and 3 from equine urine, collected from the Department of Veterinary Tropical Diseases, Faculty of Veterinary Science, University of Pretoria, South Africa, Klebsiella pneumoniae isolate from commercial chicken eggs, Enterococcus faecalis (ATCC 29212), Pseudomonas aeruginosa (ATCC 27853), Staphylococcus aureus (ATCC 29213), Candida albicans from a Gouldian finch, Aspergillus fumigatus from a chicken and Cryptococcus neoformans from a cheetah. These microbial strains were maintained on MHA or SDA for bacteria and fungi respectively, while the isolates were maintained on blood agar.
(§2) Ten mg/mL of each fraction and 1 mg/mL of isolated compounds were prepared in 10% DMSO and tested against S. aureus, E. coli, K. pneumoniae, E. faecalis, P. aeruginosa, C. albicans, C. neoformans and A. fumigatus. Cultures were prepared by inoculating each microbial strain from prepared agar plates into sterilized MHB for bacterial and SDB for fungi in sterile McCartney bottles respectively. The inoculums were placed in an orbital shaker incubator. Bacterial strains were incubated at 37 °C for 18 h. Each bacterial culture was diluted in fresh MHB and the absorbance was measured at a wavelength of 560 nm using a microplate reader (Epoch Biotek). The readings were compared to a McFarland standard No. 1 correlating to approximately 3 × 10^8 cfu/mL). For fungi strains, cultures were incubated at 30 °C for 24 h (C. albicans), 72 h (C. neoformans) and 120 h (A. fumigatus) respectively. The resultant cells and spores were washed with sterile normal saline and absorbance was measured at a wavelength of 560 nm and turbidity was adjusted to a McFarland standard 1.This was further diluted in a 1:10 ratio in SDB to a turbidity of 5 × 10^5 cfu/mL. These diluted cultures (bacterial and fungi) were used for the screening following the serial microdilution method of Eloff.

[2] = tested on: E. coli (ATCC 25922) biofilm; assay: Biofilm inhibition, crystal violet staining; assay type: cell-based, Escherichia coli; details: planktonic (0 h) and biofilm (24 h) stages, 1 mg/mL and MIC level
Method: A single colony of E. coli (ATCC 25922) and S. aureus (ATCC 29213), strains were each inoculated into TSB and incubated for 24 h. The biofilm inhibition assay was carried out by adopting the method described by […] et al.. Two stages; planktonic, T0 and biofilm formation, T24 were investigated against the 24 h prepared bacterial cultures. One hundred microliters of each standardised bacterial culture (OD590 1 × 10^6 cfu/mL) was aliquoted into wells of a sterile flat bottomed 96-well microplate. Plates prepared for 24 h biofilm formation were immediately sealed with an adhesive sealer, placed in the incubator and incubated for 24 h at 37 °C. […] To the plates prepared for 0 h, the samples were added immediately. Wells containing cultures only, as well as acetone and sterile distilled water used to prepare the samples were included as controls. […] From the wells, 100 μL of the destaining solution was transferred to a new plate and semi-quantitative assessment of biofilm formation was done by measuring absorbance at 590 nm using SoftMax […] software on a microplate reader (SpectraMax M2). The mean absorbance of the samples was determined, and percentage inhibition was obtained using the equation below: percentage inhibiton=mean of culture control-mean of sample/mean of culture controlx100

E. coli = assay: Metabolic activity inhibition (INT); assay type: cell-based, Escherichia coli
Method: The ability of the isolated compounds to inhibit the bacterial metabolic activity was tested against E. coli and S. aureus following the method used by Ramage and Lopez-Ribot with slight modification. The organisms were inoculated in a 96-well microplate following the same biofilm assay procedure described above. The final concentration of each compound in the wells was 0.016 mg/mL, 0.031 mg/mL, 0.063 mg/mL, 0.125 mg/mL and 1 mg/mL respectively. After 24 h of incubation with samples, the plates were washed three times with sterile distilled water and 50 μL of 1 mg/mL INT was added to each well and further incubated in the dark for 2 h. After incubation, absorbance was read at 490 nm using a microplate reader and the percentages of reduction of bacterial metabolic activity in the presence of different concentrations of compounds were calculated using the formula:
percentage inhibiton=mean of culture control−mean of sample/mean of culture controlx100

[3] = tested on: Escherichia coli (ATCC 25922), E. coli (1); assay: MIC, serial microdilution with INT; assay type: cell-based; details: Escherichia coli, ATCC25922, E. coli (1), read-out: Minimum inhibitory concentration
Excerpt: as §1, §2

[4] = tested on: E. coli (B1962/17) isolate from equine urine, E. coli (3); assay: MIC, serial microdilution with INT; assay type: cell-based; details: Escherichia coli, read-out: Minimum inhibitory concentration
Excerpt: as §1, §2

[5] = tested on: Cryptococcus neoformans from a cheetah; assay: MIC, serial microdilution with INT; assay type: cell-based; details: C. neoformans, read-out: Minimum inhibitory concentration
Excerpt: as §1, §2

[6] = tested on: Staphylococcus aureus (ATCC 29213); assay: MIC, serial microdilution with INT; assay type: cell-based; details: ATCC29213, S. aureus, read-out: Minimum inhibitory concentration
Excerpt: as §1, §2

Vero monkey kidney cells = assay: in vitro; details: Vero
Method: Different concentrations of the compounds ranging from 0.003 to 0.2 mg/mL were tested for cytotoxicity against three cell lines; Vero monkey kidney, C3A and Caco2. Vero cells were grown and maintained in MEM, supplemented with 0.1% gentamicin and 5% foetal calf serum, while Caco2 and C3A cells were grown and maintained in DMEM supplemented with 10% foetal calf serum, 1% non-essential amino acids and 1% penicillin-streptomycin. All cells were incubated in a 5% CO2 incubator at 37 °C. Doxorubicin chloride was used as positive control while 10% DMSO used in dissolving the test samples was used as the negative control. The 3-(4,5-dimethylthiazol)-2,5-diphenyl tetrazolium bromide (MTT) assay described by Mosmann with modification by McGaw et al. was used to determine the cytotoxicity of the test samples. The lethal concentration (LC50) value was calculated as the concentration of tested sample resulting in a 50% reduction of absorbance compared to untreated cells. Selectivity index (SI) values were calculated against the MIC using the formula: […]

| Compound | MIC [1] [µg/mL] | Mean MIC [1] [µg/mL] | Biofilm inhibition (verdict in words) [2] | Metabolic activity inhibition (verdict in words) (E. coli) | MIC [3] [µg/mL] | MIC [4] [µg/mL] | MIC ([5]; 48 h, 48 h) [µg/mL] | MIC ([5]; 72 h, 72 h) [µg/mL] | MIC [6] [µg/mL] | Selectivity index (LC50/MIC) (Vero monkey kidney cells; C. neoformans 48 h) | Selectivity index (LC50/MIC) (Vero monkey kidney cells; C. neoformans 72 h) | Selectivity index (LC50/MIC) (Vero monkey kidney cells; E. coli (1)) | Selectivity index (LC50/MIC) (Vero monkey kidney cells; E. coli (2)) | Selectivity index (LC50/MIC) (Vero monkey kidney cells; E. coli (3)) | Selectivity index (LC50/MIC) (Vero monkey kidney cells; K. pneumoniae) | Selectivity index (LC50/MIC) (Vero monkey kidney cells; S. aureus) | Selectivity index (LC50/MIC) (Vero monkey kidney cells; A. fumigatus 48 h) |
| --- | --- | --- | --- | --- | --- | --- | --- | --- | --- | --- | --- | --- | --- | --- | --- | --- | --- |
| COc1ccc(C2CC(=O)c3c(OC)cc(OC)cc3O2)cc1 (racemic) [Compound 2, (±)-4′,5,7-trimethoxy flavanone] | 50 ± 40 (≈ 159 µM) | 50 | good and good activity and good inhibitory activity | good | 31 (≈ 98.6 µM) | 31 (≈ 98.6 µM) | 16 (≈ 50.9 µM) | 125 (≈ 398 µM) | 31 (≈ 98.6 µM) | 12.625 | 1.616 | 6.515 | 6.452 | 6.452 | 1.616 | 6.516 | – |
| COc1ccc(-c2oc3cc(OC)cc(O)c3c(=O)c2OC)cc1 [Compound 3, 5-hydroxy-3,7,4′-trimethoxyflavone] | 140 (≈ 426 µM) | – | good and good activity and good inhibitory activity | good | 63 (≈ 192 µM) | 250 (≈ 761 µM) | > 250 | > 250 | 16 (≈ 48.7 µM) | – | – | 3.127 | 0.788 | 0.788 | 1.576 | 12.313 | 6.355 |
